Source: article PMC6100082, “Pyridine-Ureas as Potential Anticancer Agents: Synthesis and In Vitro Biological Evaluation” (Molecules : A Journal of Synthetic Chemistry and Natural …, 2018)

How the values were obtained:
OVCAR-4 = assay: NCI one-dose SRB assay (Ovarian Cancer); format: cell-based, human; settings: for inhibition at 10 µM: Homo sapiens, OVCAR-4, 10 μM, read-out: Percentage growth inhibition (GI%); for Growth Percent: OVCAR-4, 1.00E-5 Molar
In short: (§1)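 Compounds were tested at a single concentration of 10^−5 M against human tumour cell lines, with 48 h drug exposure. Cell viability and growth were estimated by sulforhodamine B protein staining and expressed as percentage growth inhibition (GI%).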

OVCAR-5 = assay: NCI one-dose SRB assay (Ovarian Cancer); format: cell-based, human; settings: for inhibition at 10 µM: Homo sapiens, OVCAR-5, 10 μM, read-out: Percentage growth inhibition (GI%); for Growth Percent: OVCAR-5, 1.00E-5 Molar
In short: as §1

OVCAR-3 = assay: NCI one-dose SRB assay (Ovarian Cancer); format: cell-based, human; settings: for inhibition at 10 µM: Homo sapiens, OVCAR-3, 10 μM, read-out: Percentage growth inhibition (GI%); for Growth Percent: OVCAR-3, 1.00E-5 Molar
In short: as §1

NCI 58 cell line panel = assay: NCI one-dose SRB assay, whole panel / subpanel summary; format: cell-based, human; settings: for inhibition at 10 µM: Homo sapiens, one dose, read-out: mean inhibition (mean % growth inhibition over NCI 58 cell line panel); for Mean Growth Percent: One Dose Mean Graph, 1.00E-5 Molar
In short: as §1

NCI-H460 = assay: NCI one-dose SRB assay (Non-Small Cell Lung Cancer); format: cell-based, human; settings: for inhibition at 10 µM: Homo sapiens, NCI-H460, 10 μM, read-out: Percentage growth inhibition (GI%); for Growth Percent: NCI-H460, 1.00E-5 Molar
In short: as §1

HOP-62 = assay: as above; format: cell-based, human; settings: for Growth Percent: HOP-62, 1.00E-5 Molar; for inhibition at 10 µM: Homo sapiens, HOP-62, 10 μM, read-out: Percentage growth inhibition (GI%)
In short: as §1

NCI-H226 = assay: as above; format: cell-based, human; settings: for inhibition at 10 µM: Homo sapiens, NCI-H226, 10 μM, read-out: Percentage growth inhibition (GI%); for Growth Percent: NCI-H226, 1.00E-5 Molar
In short: as §1

EKVX = assay: as above; format: cell-based, human; settings: for Growth Percent: 1.00E-5 Molar; for inhibition at 10 µM: Homo sapiens, read-out: Percentage growth inhibition (GI%)
In short: as §1

HOP-92 = assay: as above; format: cell-based, human; settings: for Growth Percent: HOP-92, 1.00E-5 Molar; for inhibition at 10 µM: Homo sapiens, HOP-92, 10 μM, read-out: Percentage growth inhibition (GI%)
In short: as §1

NCI-H322M = assay: as above; format: cell-based, human; settings: for Growth Percent: 1.00E-5 Molar; for inhibition at 10 µM: Homo sapiens, read-out: Percentage growth inhibition (GI%)
In short: as §1

NCI-H23 = assay: as above; format: cell-based, human; settings: for inhibition at 10 µM: Homo sapiens, NCI-H23, 10 μM, read-out: Percentage growth inhibition (GI%); for Growth Percent: NCI-H23, 1.00E-5 Molar
In short: as §1

NCI-H522 = assay: as above; format: cell-based, human; settings: for inhibition at 10 µM: Homo sapiens, NCI-H522, 10 μM, read-out: Percentage growth inhibition (GI%); for Growth Percent: NCI-H522, 1.00E-5 Molar
In short: as §1

A549/ATCC = assay: as above; format: cell-based, human; settings: for Growth Percent: 1.00E-5 Molar; for inhibition at 10 µM: Homo sapiens, read-out: Percentage growth inhibition (GI%)
In short: as §1

T-47D = assay: NCI one-dose SRB assay (Breast Cancer); format: cell-based, human; settings: for Growth Percent: 1.00E-5 Molar; for inhibition at 10 µM: Homo sapiens, T47D, read-out: Percentage growth inhibition (GI%)
In short: as §1

HS 578T = assay: NCI one-dose SRB assay (Breast Cancer); format: cell-based, human; settings: for Growth Percent: 1.00E-5 Molar; for inhibition at 10 µM: Homo sapiens, read-out: Percentage growth inhibition (GI%)
In short: as §1

MCF7 = assay: NCI one-dose SRB assay (Breast Cancer); format: cell-based, human; settings: for inhibition at 10 µM: Homo sapiens, MCF7, 10 μM, read-out: Percentage growth inhibition (GI%); for Growth Percent: MCF7, 1.00E-5 Molar
In short: as §1

MDA-MB-231 = assay: NCI one-dose SRB assay (Breast Cancer); format: cell-based, human; settings: for inhibition at 10 µM: Homo sapiens, MDA-MB-231, 10 μM, read-out: Percentage growth inhibition (GI%); for Growth Percent: MDA-MB-231/ATCC, 1.00E-5 Molar
In short: as §1

MDA-MB-468 = assay: NCI one-dose SRB assay (Breast Cancer); format: cell-based, human; settings: for inhibition at 10 µM: Homo sapiens, MDA-MB-468, 10 μM, read-out: Percentage growth inhibition (GI%); for Growth Percent: MDA-MB-468, 1.00E-5 Molar
In short: as §1

BT-549 = assay: NCI one-dose SRB assay (Breast Cancer); format: cell-based, human; settings: for Growth Percent: BT-549, 1.00E-5 Molar; for inhibition at 10 µM: Homo sapiens, BT-549, 10 μM, read-out: Percentage growth inhibition (GI%)
In short: as §1

SF-295 = assay: NCI one-dose SRB assay (CNS Cancer); format: cell-based, human; settings: for inhibition at 10 µM: Homo sapiens, SF-295, 10 μM, read-out: Percentage growth inhibition (GI%); for Growth Percent: SF-295, 1.00E-5 Molar
In short: as §1

SF-539 = assay: NCI one-dose SRB assay (CNS Cancer); format: cell-based, human; settings: for inhibition at 10 µM: Homo sapiens, SF-539, 10 μM, read-out: Percentage growth inhibition (GI%); for Growth Percent: SF-539, 1.00E-5 Molar
In short: as §1

SNB-19 = assay: NCI one-dose SRB assay (CNS Cancer); format: cell-based, human; settings: for inhibition at 10 µM: Homo sapiens, SNB-19, 10 μM, read-out: Percentage growth inhibition (GI%); for Growth Percent: SNB-19, 1.00E-5 Molar
In short: as §1

U251 = assay: NCI one-dose SRB assay (CNS Cancer); format: cell-based, human; settings: for inhibition at 10 µM: Homo sapiens, U-251, U251, 10 μM, read-out: Percentage growth inhibition (GI%); for Growth Percent: U251, 1.00E-5 Molar
In short: as §1

SF-268 = assay: NCI one-dose SRB assay (CNS Cancer); format: cell-based, human; settings: for inhibition at 10 µM: Homo sapiens, SF-268, 10 μM, read-out: Percentage growth inhibition (GI%); for Growth Percent: SF-268, 1.00E-5 Molar
In short: as §1

SNB-75 = assay: NCI one-dose SRB assay (CNS Cancer); format: cell-based, human; settings: for inhibition at 10 µM: Homo sapiens, SNB-75, 10 μM, read-out: Percentage growth inhibition (GI%); for Growth Percent: SNB-75, 1.00E-5 Molar
In short: as §1

PC-3 = assay: NCI one-dose SRB assay (Prostate); format: cell-based, human; settings: for inhibition at 10 µM: Homo sapiens, PC-3, 10 μM, read-out: Percentage growth inhibition (GI%); for Growth Percent: PC-3, 1.00E-5 Molar
In short: as §1

DU-145 = assay: NCI one-dose SRB assay (Prostate); format: cell-based, human; settings: for Growth Percent: DU-145, 1.00E-5 Molar; for inhibition at 10 µM: Homo sapiens, DU-145, 10 μM, read-out: Percentage growth inhibition (GI%)
In short: as §1

COc1cccc(NC(=O)Nc2ccc(-c3ccc(OC)c(OC)c3)nc2C)c1 [Compound 8m, 1-(6-(3,4-Dimethoxyphenyl)-2-methylpyridin-3-yl)-3-(3-methoxyphenyl) Urea]
inhibition at 10 µM (OVCAR-4): < 10% | Growth Percent (OVCAR-4): 126.33% | inhibition at 10 µM (OVCAR-5): < 10% | Growth Percent (OVCAR-5): 104.54% | inhibition at 10 µM (OVCAR-3): < 10% | Growth Percent (OVCAR-3): 101.69% | inhibition at 10 µM (NCI 58 cell line panel): 8% | Mean Growth Percent (NCI 58 cell line panel): 92.83% | inhibition at 10 µM (NCI-H460): < 10% | Growth Percent (NCI-H460): 102.12% | Growth Percent (HOP-62): 94.75% | inhibition at 10 µM (HOP-62): < 10% | inhibition at 10 µM (NCI-H226): < 10% | Growth Percent (NCI-H226): 94.44% | Growth Percent (EKVX): 100.68% | inhibition at 10 µM (EKVX): < 10% | Growth Percent (HOP-92): 81.00% | inhibition at 10 µM (HOP-92): 19% | Growth Percent (NCI-H322M): 95.22% | inhibition at 10 µM (NCI-H322M): < 10% | inhibition at 10 µM (NCI-H23): 10% | Growth Percent (NCI-H23): 90.97% | inhibition at 10 µM (NCI-H522): 47% | Growth Percent (NCI-H522): 53.07% | Growth Percent (A549/ATCC): 90.54% | inhibition at 10 µM (A549/ATCC): 10% | Growth Percent (T-47D): 81.11% | inhibition at 10 µM (T-47D): 19% | Growth Percent (HS 578T): 99.31% | inhibition at 10 µM (HS 578T): < 10% | inhibition at 10 µM (MCF7): 10% | Growth Percent (MCF7): 90.01% | inhibition at 10 µM (MDA-MB-231): < 10% | Growth Percent (MDA-MB-231): 106.37% | inhibition at 10 µM (MDA-MB-468): < 10% | Growth Percent (MDA-MB-468): 99.00% | Growth Percent (BT-549): 87.21% | inhibition at 10 µM (BT-549): 13% | melting point: 243 to 245 °C | inhibition at 10 µM (SF-295): < 10% | Growth Percent (SF-295): 99.68% | inhibition at 10 µM (SF-539): < 10% | Growth Percent (SF-539): 93.97% | inhibition at 10 µM (SNB-19): < 10% | Growth Percent (SNB-19): 115.50% | inhibition at 10 µM (U251): < 10% | Growth Percent (U251): 94.15% | inhibition at 10 µM (SF-268): < 10% | Growth Percent (SF-268): 94.56% | inhibition at 10 µM (SNB-75): < 10% | Growth Percent (SNB-75): 104.39% | inhibition at 10 µM (PC-3): 41% | Growth Percent (PC-3): 59.08% | Growth Percent (DU-145): 99.53% | inhibition at 10 µM (DU-145): < 10%

COc1ccc(NC(=O)Nc2ccc(-c3ccc(OC)c(OC)c3)nc2C)cc1 [Compound 8n, 1-(6-(3,4-Dimethoxyphenyl)-2-methylpyridin-3-yl)-3-(4-methoxyphenyl) Urea]
inhibition at 10 µM (OVCAR-4): 71% | Growth Percent (OVCAR-4): 29.55% | inhibition at 10 µM (OVCAR-5): < 10% | Growth Percent (OVCAR-5): 98.04% | inhibition at 10 µM (OVCAR-3): < 10% | Growth Percent (OVCAR-3): 102.08% | inhibition at 10 µM (NCI 58 cell line panel): 22 to 34% | Mean Growth Percent (NCI 58 cell line panel): 66.18% | inhibition at 10 µM (NCI-H460): 83% | Growth Percent (NCI-H460): 17.58% | Growth Percent (HOP-62): 56.53% | inhibition at 10 µM (HOP-62): 44% | inhibition at 10 µM (NCI-H226): 42% | Growth Percent (NCI-H226): 58.04% | Growth Percent (EKVX): 91.15% | inhibition at 10 µM (EKVX): < 10% | Growth Percent (HOP-92): 73.37% | inhibition at 10 µM (HOP-92): 27% | Growth Percent (NCI-H322M): 86.96% | inhibition at 10 µM (NCI-H322M): 14% | inhibition at 10 µM (NCI-H23): 33% | Growth Percent (NCI-H23): 67.43% | inhibition at 10 µM (NCI-H522): 51% | Growth Percent (NCI-H522): 49.88% | Growth Percent (A549/ATCC): 57.02% | inhibition at 10 µM (A549/ATCC): 43% | Growth Percent (T-47D): 60.36% | inhibition at 10 µM (T-47D): 40% | Growth Percent (HS 578T): 39.96% | inhibition at 10 µM (HS 578T): 61% | inhibition at 10 µM (MCF7): 35% | Growth Percent (MCF7): 65.14% | inhibition at 10 µM (MDA-MB-231): 60% | Growth Percent (MDA-MB-231): 40.48% | inhibition at 10 µM (MDA-MB-468): 17% | Growth Percent (MDA-MB-468): 83.00% | Growth Percent (BT-549): 50.44% | inhibition at 10 µM (BT-549): 50% | melting point: 253 to 254 °C | inhibition at 10 µM (SF-295): < 10% | Growth Percent (SF-295): 101.75% | inhibition at 10 µM (SF-539): 30% | Growth Percent (SF-539): 70.63% | inhibition at 10 µM (SNB-19): 29% | Growth Percent (SNB-19): 71.47% | inhibition at 10 µM (U251): 78% | Growth Percent (U251): 22.08% | inhibition at 10 µM (SF-268): 41% | Growth Percent (SF-268): 59.25% | inhibition at 10 µM (SNB-75): 53% | Growth Percent (SNB-75): 47.52% | inhibition at 10 µM (PC-3): 19% | Growth Percent (PC-3): 81.42% | Growth Percent (DU-145): 72.24% | inhibition at 10 µM (DU-145): 28%
